Results taken from patent US4654370A, “Glyceryl valproates” (Abbott Laboratories, priority 1980, dated 1987).

How the values were obtained:
[1] = test system: gastro-intestinal tract; settings: cited from earlier work
[2] = test system: epileptic seizures; settings: stated as background; cited from earlier work
[3] = test system: audiogenic seizures; test: Protective effects against audiogenic seizures in mice; format: in vivo; settings: oral; 800 mg./kg. valproic acid equivalent; 30 min after dosing; bell for one minute; groups of 10 mice
Method: The valproic acid equivalent of 800 mg./kg. of each compound was administered by oral intubation in a composition prepared as shown in Example 12 to groups of 10 mice. Thirty minutes after dosing, convulsions were produced by electrically activating a bell for one minute.

[4] = Valproic acid blood plasma levels after oral intubation in rats; format: in vivo; settings: rat, equivalent of 200 mg. valproic acid per animal, mean of 3-18 animals
Method: (§1) The compounds of the present invention were administered to mice and rats by oral intubation. A vehicle of 0.5% aqueous methylcellulose containing one drop of a polyethylene sorbitan monooleate was used to suspend the above compounds. In the case of Example 1, the compound was first ground in a tissue-homogenizer followed by mixing in a Waring blender. The results are shown in Table I expressed in mcg. of valproic acid per ml. of blood plasma at specified times.

[5] = Absorption profiles and area-under-the-curve in beagle dog; format: in vivo; settings: blood, single oral dose 24.9 mg./kg. valproic acid equivalent
Method: Since it is possible that the new compounds are not absorbed as quickly as valproic acid itself, absorption profiles and area-under-the-curve (AUC) values were calculated for valproic acid, glyceride trivalproate and representatives of the current compounds. The phrase AUC values represents the total quantity of the compound which is absorbed by the blood during the time periods referred to in Table III expressed in mcg./ml. A beagle dog received a single oral dose of 24.9 mg./kg. valproic acid equivalent in a composition prepared as shown in Example 12. The blood concentrations are shown in Table III as mcg./ml. while the AUC values are expressed as hr.×mcg./ml.

[6] = Valproic acid blood plasma levels after oral intubation in mice; format: in vivo; settings: mouse, equivalent of 200 mg. valproic acid per animal, mean of 3-18 animals
Method: as §1

SMILES	adverse side effects ([1]; reported by Meijer and Meinardi, 1975)	therapeutic value [2]	Percentage of Mice Exhibiting Seizures, Any Type [3] [%]	Percentage of Mice Exhibiting Seizures, Tonic Extension [3] [%]	concentration at 0.5 h ([4]; 0.5 hrs.) [ng/mL]	concentration at 1.5 h ([4]; 1.5 hrs.) [ng/mL]	gastro-intestinal irritation in patients ([1]; patients using valproic acid)	concentration at 0.5 h ([5]; 0.5 hrs.) [ng/mL]	concentration at 1 h ([5]; 1 hr.) [ng/mL]	concentration at 2 h ([5]; 2 hrs.) [ng/mL]	concentration at 4 h ([5]; 4 hrs.) [ng/mL]	concentration at 6 h ([5]; 6 hrs.) [ng/mL]	AUC at 8 h ([5]; 8 hrs.) [ng·h/mL]	concentration at 0.5 h ([6]; 0.5 hrs.) [ng/mL]	concentration at 1.5 h ([6]; 1.5 hrs.) [ng/mL]
CCCC(CCC)C(=O)OCC(COC(=O)C(CCC)CCC)OC(=O)C(CCC)CCC [Glycerol trivalproate]	no adverse side effects	substantially no therapeutic value	100	80	–	–	–	–	–	–	–	–	–	–	–
CCCC(CCC)C(=O)OCC(O)CO (racemic) [Example 6, 1-Valproyl-glycerol]	–	–	50	10	–	–	–	–	–	–	–	–	–	–	–
CCCC(CCC)C(=O)O [Valproic Acid, 2-propylpentanoic acid]	–	–	50	10	84100	27500	9-16%	65600	40800	9000	2600	1300	82200	134000	72000
CCCC(CCC)C(=O)OC(COC(C)=O)COC(C)=O [Example 5, 1,3-Diacetyl-2-valproyl-glyceride]	–	–	50	10	–	–	–	–	–	–	–	–	–	–	–
